Test results: patent US9079854B2 (priority 2007, dated 2015)
Like-named read-outs stand apart in the source and are kept apart here.

Experiments:
CB1 = CB1 (Homo sapiens, UniProt P21554); assay: CB1 functional assay, [35S]GTP-γ-S binding; assay type: biochemical; set-up: purchased ES-110-MG; host or cells: CHO membrane extracts
Procedure: (§1) A dose response curve was generated at eight concentrations in duplicate on CB1 and CB2 in light of reference agonists.
(§2) Membranes (CB1, ES-110-MG or CB2, ES-111-MG) are mixed with GDP (volume:volume) and incubated for at least […] on ice. In parallel, […] are mixed with the beads (volume:volume) just before starting the reaction. The following reagents are successively added in the wells of an Optiplate: 50 μl of ligand, 20 μl of the membranes:GDP mix, 10 μl of assay buffer for agonist testing and 20 μl of the […]: beads mix. The plates are covered with a topseal, shaken on an orbital shaker for 2 min, and then incubated between 30 to 60 min at room temperature. Then the plates are centrifuged for 10 min at 2000 rpm, incubated at room temperature between 1 to 4 hours and counted for 1 min with a PerkinElmer TopCount reader.
(§3) Functional activity for acyl hydrazone was evaluated using [^35S]GTP-γ-S assay in CHO membrane extracts expressing recombinant hCB1 receptor or hCB2 receptor. The assay relies on the binding of [^35S]GTP-γ-S, a radiolabeled nonhydrolyzable GTP analogue, to the G protein upon binding of an agonist of the G-protein-coupled receptor. In this system, agonists stimulate [^35S]GTP-γ-S binding whereas neutral antagonist have no effect and inverse agonists decrease [^35S]GTP-γ-S basal binding.
(§4) CB1 and CB2 assay data are presented as the mean of two determinations. […] For replicate determinations, the maximum variability tolerated in the test was of ±20% around the average of the replicates.

hCB2 receptor = molecular target: T1, hCB2 receptor (Homo sapiens, UniProt P34972); assay: CB2 functional assay, [35S]GTP-γ-S binding; assay type: biochemical
T1 construct: purchased ES-111-MG; host or cells: CHO membrane extracts
T1 sequence (P34972 whole entry): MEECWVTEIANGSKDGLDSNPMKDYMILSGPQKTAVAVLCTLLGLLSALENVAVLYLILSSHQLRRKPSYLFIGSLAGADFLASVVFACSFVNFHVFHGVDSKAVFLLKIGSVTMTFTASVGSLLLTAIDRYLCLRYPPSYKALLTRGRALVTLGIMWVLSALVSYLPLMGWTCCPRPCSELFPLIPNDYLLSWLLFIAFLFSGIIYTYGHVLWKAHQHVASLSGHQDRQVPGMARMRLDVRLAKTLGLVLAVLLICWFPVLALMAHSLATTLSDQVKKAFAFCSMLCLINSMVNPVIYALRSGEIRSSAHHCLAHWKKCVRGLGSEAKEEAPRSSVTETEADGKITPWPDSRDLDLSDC
Procedure: as §1, §2, §3, §4

[1] = molecular target: T2, human CB1 (hCB1) receptor (Homo sapiens, UniProt P21554); assay: CB1 binding assay, competitive binding of [3H]CP 55940; set-up: % Inhibition of Control Specific Binding CB1: concentration or dose not given beside the values; details: for % of Control Specific Binding 1st: 1st determination; for % of Control Specific Binding 2nd: 2nd determination; for inhibition at 10 µM / inhibition at 1 µM: specific binding of [3H]-CP55940; for inhibition at 1 µM: CHO membranes
T2 construct: expressed in transfected cells; host or cells: CHO (Chinese hamster ovary) cells, membranes
T2 sequence (P21554 whole entry): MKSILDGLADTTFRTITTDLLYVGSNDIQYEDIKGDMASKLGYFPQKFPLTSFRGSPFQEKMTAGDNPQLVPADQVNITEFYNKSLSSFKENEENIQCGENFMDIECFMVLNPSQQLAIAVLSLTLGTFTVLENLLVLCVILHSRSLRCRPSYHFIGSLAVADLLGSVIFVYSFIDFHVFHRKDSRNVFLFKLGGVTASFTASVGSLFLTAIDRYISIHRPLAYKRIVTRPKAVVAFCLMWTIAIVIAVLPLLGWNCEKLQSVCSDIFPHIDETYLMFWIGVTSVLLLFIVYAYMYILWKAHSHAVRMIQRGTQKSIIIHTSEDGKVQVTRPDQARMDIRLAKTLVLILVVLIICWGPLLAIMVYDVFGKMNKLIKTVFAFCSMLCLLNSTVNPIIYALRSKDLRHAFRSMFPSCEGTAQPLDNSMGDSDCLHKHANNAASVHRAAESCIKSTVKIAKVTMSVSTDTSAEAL
Procedure: Cell membrane homogenates (25 μg protein) are incubated for 120 min at 37° C. with 0.5 nM [^3H]CP 55940 (the reference standard [Rinaldi-Carmona, 1996 #1320]) in the absence or presence of the test compound in a buffer containing 50 mM Tris HCl (pH 7.4), 5 mM MgCl2, 2.5 mM EDTA, and 0.3% bovine serum albumin (BSA). […]
(§5) […] [^3H]-CP55940 at a concentration of 0.5 nM and [^3H]-WIN55212 at a concentration of 0.8 nM were used as radioligands for hCB1 and hCB2 assays, respectively. The results are expressed as a percent inhibition of control specific binding. Compounds which displaced the radioligand by more than 50% for either hCB1 or hCB2 receptors were arbitrary chosen for functional activity determination.

[2] = molecular target: T3, human CB2 (hCB2) receptor (Homo sapiens, UniProt P34972); assay: CB2 binding assay, competitive binding of [3H]WIN 55212-2; details: for % Inhibition of Control Specific Binding / % of Control Specific Binding 1st / % of Control Specific Binding 2nd / % of Control Specific Binding Mean: CB2, Test Concentration 1.0E−05 (MD); for % of Control Specific Binding 1st: 1st determination; for % of Control Specific Binding 2nd: 2nd determination; for % Inhibition of Control Specific Binding CB2: Table 4, concentration not given; for inhibition at 10 µM: read-out: % inhibition hCB2 receptor, at 10 μM; for inhibition at 10 µM / inhibition at 1 µM: specific binding of [3H]-WIN55212-2; for inhibition at 1 µM: read-out: % inhibition hCB2 receptor, at 1 μM, CHO membranes
T3 construct: expressed in transfected cells; host or cells: CHO (Chinese hamster ovary) cells, membranes
T3 sequence (P34972 whole entry): as the sequence (P34972 whole entry) above
Procedure: Cell membrane homogenates (15 μg protein) are incubated for 120 min at 37° C. with 0.8 nM [^3H]WIN 55212-2 (the reference standard [Munro, 1993 #1321]) in the absence or presence of the test compound in a buffer containing 50 mM HEPES/Tris HCL (pH 7.4), 5 mM MgCl2, 2.5 mM EGTA, and 0.1% BSA. Nonspecific binding is determined in the presence of 10 μM WIN 55212-2. After being incubated, the samples are filtered rapidly under vacuum through glass fiber filters (GF/B; Packard) presoaked with 0.3% PEI and rinsed several times with ice-cold buffer containing 50 mM Tris HCl (pH 7.4) and 0.5% BSA using a 96-sample cell harvester (Unifilter; Packard). The filters are dried then counted for radioactivity in a scintillation counter (Topcount; Packard) using a scintillation cocktail (Microscint 0; Packard). The results are expressed as a percentage of the inhibition of the control radioligand-specific binding. The reference standard compounds are tested in each experiment at several concentrations to obtain a competition curve from which its IC50 is calculated.
as §5

[3] = Table 7, relative to the efficacy of CP55940
[4] = Table 9, relative to the efficacy of CP 55,940
[5] = CB1, Test Concentration 1.0E−05 (MD)
[6] = CB2 Functional Activity, read-out: EC50 (nM) for GTP Binding
[7] = Table 7, mean of two determinations, read-out: [35S]GTP-γ-S (hCB2) EC50 (nM ± SEM)
[8] = Table 7, mean of two determinations, read-out: [35S]GTP-γ-S (hCB1) EC50 (nM ± SEM)
[9] = Table 9, mean of two determinations, read-out: [35S]GTP-γ-S hCB2 EC50 (nM ± SEM)
[10] = Table 10, repeated experiment, read-out: [35S]GTP-γ-S hCB2 EC50

Chain of CB1 (P21554 whole entry): as the sequence (P21554 whole entry) above

CCCCCCC(C)(C)c1ccc([C@@H]2C[C@H](O)CC[C@H]2CCCO)c(O)c1 [CP55,940, reference compound]
Emax (CB1; [3]): 100% | Emax (CB1; [4]): 100% | Emax (hCB2 receptor; [3]): 100% | Emax (hCB2 receptor; [4]): 100%

O=C(N/N=C1\C(=O)N(CCC2CCCCC2)c2ccccc21)c1ccccc1 [Example 5, Benzoic acid [1-(2-cyclohexyl-ethyl)-2-oxo-1,2-dihydro-indol-3-ylidene]-hydrazide]
% of Control Specific Binding 1st [1, 5]: 0.4% | % of Control Specific Binding 2nd [1, 5]: 7.7% | % of Control Specific Binding Mean [1, 5]: 4% | inhibition at 10 µM [1]: 96 ± 3.7% | % Activation Average (CB1; CB1 Functional Activity): 56.75% | Compound Activity (CB1; CB1 Functional Activity): Agonist | Emax (CB1; [3]): 56.8% | % Activation Average (hCB2 receptor; CB2 Functional Activity): 55.55% | Compound Activity (hCB2 receptor; CB2 Functional Activity): Agonist | EC50 (hCB2 receptor; [6]): 103 nM | EC50 (hCB2 receptor; [7]): 103 ± 1.6 nM | Emax (hCB2 receptor; [3]): 55.6% | % Inhibition of Control Specific Binding [2]: 80% | % of Control Specific Binding 1st [2]: 13.9% | % of Control Specific Binding 2nd [2]: 26.4% | % of Control Specific Binding Mean [2]: 20.2% | % Inhibition of Control Specific Binding CB2 [2]: 80% | inhibition at 10 µM [2]: 79.8 ± 6.3%

CCCCCCN1C(=O)/C(=N\NC(=O)Cc2ccccc2)c2ccccc21 [Example 7, Phenylacetic acid [1-n-hexyl-2-oxo-1,2-dihydro-indol-3-ylidene]-hydrazide]
% Inhibition of Control Specific Binding [1, 5]: 98% | % of Control Specific Binding 1st [1, 5]: 0.9% | % of Control Specific Binding 2nd [1, 5]: 2.6% | % of Control Specific Binding Mean [1, 5]: 1.8% | % Inhibition of Control Specific Binding CB1 ([1]; Table 3, concentration not given): 98% | inhibition at 10 µM [1]: 98.2 ± 0.8% | % Activation Average (CB1; CB1 Functional Activity): 71.88% | Compound Activity (CB1; CB1 Functional Activity): Agonist | EC50 (CB1; CB1 Functional Activity, read-out: EC50 (nM) for GTP Binding): 459 nM | EC50 (CB1; [8]): 459 ± 1.1 nM | Emax (CB1; [3]): 71.9% | % Activation Average (hCB2 receptor; CB2 Functional Activity): 45.79% | Compound Activity (hCB2 receptor; CB2 Functional Activity): Agonist | EC50 (hCB2 receptor; [6]): 189 nM | EC50 (hCB2 receptor; [7]): 188.7 ± 1.3 nM | Emax (hCB2 receptor; [3]): 45.8% | % Inhibition of Control Specific Binding [2]: 92% | % of Control Specific Binding 1st [2]: 8.4% | % of Control Specific Binding 2nd [2]: 8.5% | % of Control Specific Binding Mean [2]: 8.5% | % Inhibition of Control Specific Binding CB2 [2]: 92% | inhibition at 10 µM [2]: 91.5 ± 0.1%

O=C(Cc1ccccc1)N/N=C1\C(=O)N(CCC2CCCCC2)c2ccccc21 [Example 10, N′-[1-(2-cyclohexylethyl)-2-oxo-1,2-dihydro-3H-indol-3-ylidene]-2-phenylacetohydrazide]
inhibition at 10 µM [1]: 88.8 ± 0.6% | EC50 (CB1; [8]): 1238.8 ± 1.2 nM | Emax (CB1; [3]): 75% | Emax (hCB2 receptor; [3]): 21% | inhibition at 10 µM [2]: 47.2 ± 7.7%

CCCCCCN1C(=O)/C(=N\NC(=O)C2CCCCC2)c2ccccc21 [Example 11, N′-[(3Z)-1-hexyl-2-oxo-1,2-dihydro-3H-indol-3-ylidene]cyclohexanecarbohydrazide]
inhibition at 1 µM [1]: 65.8 ± 0.2% | Emax at 3 µM (CB1; read-out: [35S]GTP-γ-S hCB1 Emax (%), Table 9 footnote a: Efficacy determined at 3 μM, relative to CP 55,940): 40.9% | EC50 (hCB2 receptor; [9]): 79.1 ± 1.5 nM | Emax (hCB2 receptor; [4]): 58% | inhibition at 1 µM [2]: 61 ± 2.1%

CCCCCCN1C(=O)/C(=N\NC(=O)OC(C)(C)C)c2ccccc21 [Example 14, tert-butyl (2Z)-2-(1-hexyl-2-oxo-1,2-dihydro-3H-indol-3-ylidene)hydrazinecarboxylate]
inhibition at 1 µM [1]: 85.1 ± 3.3% | EC50 (CB1; Table 9, mean of two determinations, read-out: [35S]GTP-γ-S hCB1 EC50 (nM ± SEM)): 937.1 ± 1.2 nM | Emax (CB1; [4]): 92% | EC50 (hCB2 receptor; [9]): 22.4 ± 1.3 nM | Emax (hCB2 receptor; [4]): 43.4% | inhibition at 1 µM [2]: 82.3 ± 0.8%

CCCN1C(=O)/C(=N\NC(=O)c2ccccc2)c2ccccc21 [Example 21, N′-[(3Z)-1-(1-propyl)-2-oxo-1,2-dihydro-3H-indol-3-ylidene]benzohydrazide]
inhibition at 1 µM [1]: 43 ± 1.2% | EC50 (hCB2 receptor; [9]): 200.7 ± 1.5 nM | Emax (hCB2 receptor; [4]): 61.4% | inhibition at 1 µM [2]: 32 ± 3.6%

CCCCCCN1C(=O)/C(=N\NC(=O)c2ccccc2)c2cccc(C)c21 [Example 28, N′-[(3Z)-1-hexyl-7-methyl-2-oxo-1,2-dihydro-3H-indol-3-ylidene]benzohydrazide]
inhibition at 1 µM [1]: 67 ± 1.6% | EC50 (hCB2 receptor; [9]): 84 ± 2.2 nM | Emax (hCB2 receptor; [4]): 34.2% | inhibition at 1 µM [2]: 68 ± 3.7%

CCCCCCN1C(=O)/C(=N\NC(=O)c2ccccc2)c2cccc(Cl)c21 [Example 29, N′-[(3Z)-7-chloro-1-hexyl-2-oxo-1,2-dihydro-3H-indol-3-ylidene]benzohydrazide]
inhibition at 1 µM [1]: 60 ± 1% | EC50 (hCB2 receptor; [9]): 645.5 ± 1.3 nM | Emax (hCB2 receptor; [4]): 64.8% | inhibition at 1 µM [2]: 29 ± 4.5%

CCCCCCN1C(=O)/C(=N\NC(=O)c2ccccc2)c2cccc(I)c21 [Example 30, N′-[(3Z)-1-hexyl-7-iodo-2-oxo-1,2-dihydro-3H-indol-3-ylidene]benzohydrazide]
inhibition at 1 µM [1]: 61 ± 2.5% | Emax at 3 µM (hCB2 receptor; read-out: [35S]GTP-γ-S hCB2 Emax (%), Table 9 footnote a: Efficacy determined at 3 μM, relative to CP 55,940): 55% | inhibition at 1 µM [2]: 66 ± 3.2%

CCCCCCN1C(=O)/C(=N\NC(=O)c2ccccc2)c2cc(F)ccc21 [Example 33, N′-[(3Z)-5-fluoro-1-hexyl-2-oxo-1,2-dihydro-3H-indol-3-ylidene]benzohydrazide]
inhibition at 1 µM [1]: 57 ± 0.7% | EC50 (hCB2 receptor; [9]): 186.9 ± 1.7 nM | Emax (hCB2 receptor; [4]): 33.8% | inhibition at 1 µM [2]: 46 ± 1.7%

COc1ccc2c(c1)N(CC1CCCCC1)C(=O)/C2=N\NC(=O)c1ccccc1 [Example 37, N′-[(3Z)-1-(cyclohexylmethyl)-6-methoxy-2-oxo-1,2-dihydro-3H-indol-3-ylidene]benzohydrazide]
Emax (CB1; Table 10, repeated experiment): 40.8% | EC50 (CB1; Table 10, repeated experiment, read-out: [35S]GTP-γ-S hCB1 EC50): 61.2 nM | Emax (hCB2 receptor; Table 10, repeated experiment): -82% | EC50 (hCB2 receptor; [10]): 18 nM

CCCCCN1C(=O)/C(=N\NC(=O)c2ccccc2)c2ccc(OC)cc21 [Example 39, N′-[(3Z)-6-methoxy-1-pentyl-2-oxo-1,2-dihydro-3H-indol-3-ylidene]benzohydrazide]
Emax (hCB2 receptor; Table 10, repeated experiment): -108% | EC50 (hCB2 receptor; [10]): 5.8 nM

CCCCN1C(=O)/C(=N\NC(=O)c2ccccc2)c2ccc(OC)cc21 [Example 40, N′-[(3Z)-1-butyl-6-methoxy-2-oxo-1,2-dihydro-3H-indol-3-ylidene]benzohydrazide]
Emax (hCB2 receptor; Table 10, repeated experiment): -95% | EC50 (hCB2 receptor; [10]): 85 nM

COc1ccc2c(c1)N(CCC1CCCCC1)C(=O)/C2=N\NC(=O)c1ccccc1 [Example 41, N′-[(3Z)-1-(2-cyclohexylethyl)-6-methoxy-2-oxo-1,2-dihydro-3H-indol-3-ylidene]benzohydrazide]
Emax (hCB2 receptor; Table 10, repeated experiment): -104% | EC50 (hCB2 receptor; [10]): 540 nM
